{"source": "patent US8815946B2", "about": "“Inhibition of proliferation and fibrotic response of activated corneal stromal cells” (University of Pittsburgh—of the Commonwealth System of …, priority 2008, dated 2014)", "key": {"[1]": {"tested_on": "normal human corneal fibroblasts", "assay": "Cell proliferation analysis, human corneal stromal cells", "format": "cell-based", "method": "FIGS. 1A-1C. Effect of ethyl pyruvate on the growth of human corneal stromal cells. Corneal stromal cells in P2 growing in DMEM/F12 with 10% FBS were subcultured into desired number of 35 mm tissue culture dishes. After 24 hrs of incubation, the media were replaced with DMEM/F12 medium containing 1% FBS with or without EP (FIG. 1A) or with the same medium containing TGF-β1 or b-FGF/HS with or without EP (FIG. 1B and FIG. 1C, respectively). The cells in several marked regions were counted every 24 hours as described in Methods. The data points are average (±SE) from two separate experiments.\nTo study the effect of EP on cell proliferation, normal human corneal fibroblasts growing in DMEM/F12 with 10% FBS were subcultured into the desired number of 35 mm tissue culture dishes at a density of 5×10^4 cells/per dish. […] Several regions were marked on the bottom of the dishes and cells in marked regions were counted at 24 hr intervals for five days. Phase contrast digital micrographs of the cells in the marked fields were captured and the cells in the images were counted using MetaMorph® imaging software. The rate of proliferation was evaluated by determining the number of cells at specific time points after treatment/number of cells at the start of the treatment. […]"}, "[2]": {"tested_on": "extracellular matrix genes", "assay": "Microarray analysis (Affymetrix U133 Plus 2.0) of corneal stromal cells", "format": "cell-based, human", "method": "Total RNA was processed and analyzed using the appropriate Affymetrix products (Affymetrix Inc., Santa Clara, Calif.). Eukaryote Poly A RNA internal standards (GeneChip® Poly-A RNA Control Kit from Affymetrix Inc.) were added to the samples, and the mRNA component of the total RNA was reverse-transcribed in the presence of a T7-(dT)24 primer (GeneChip® One-Cycle cDNA Synthesis Kit from Affymetrix Inc.). The resulting cDNA was extracted (GeneChip® Sample Cleanup Module from Affymetrix Inc.) and transcribed in vitro in the presence of biotin-labeled ribonucleotides (Labeling Kit from Affymetrix Inc.). The biotinylated RNA was extracted and fragmented (GeneChip® Sample Cleanup Module from Affymetrix Inc.: 20 μg material fragmented for 35 minutes at 94° C.). Each sample was hybridized overnight to a U133 PLUS™ 2.0 GeneChip (GeneChip® Human Genome U133 Plus 2.0 Array from Affymetrix Inc.). The chips were then washed, developed and scanned in Agilent CHIPSCANNER™ (Affymetrix Inc., Santa Clara, Calif.). Raw data was processed and analyzed using Affymetrix GENECHIP™ Operating System (GCOS) v 1.0.\nThe U133 PLUS™ 2.0 GeneChips contain 54,675 panels, each targeting a specific transcript sequence. Approximately 20,600 gene products identified by Entrez Gene numbers are redundantly targeted by 46,000 panels: the remaining panels target products which are less well characterized. Affymetrix GCOS™1.0 software was used to assess the presence or absence of the target sequence of each panel. Expression levels were normalized so that the mean for each sample was equal to the global mean for all samples. Panels, which were absent for every sample in either experiment, were omitted from further consideration. This left 23284 panels encoding 12258 unique, characterized (Entrez Gene) genes.\nIn earlier work, the changes in the gene expression upon activation of keratocyte to myofibroblast phenotype induced by TGF-β1 was studied. In the present analysis, as a cross check the present, consistent TGFβ-evoked (>2-fold) increases were checked with the previous data. Transition from keratocytes to fibroblasts increased 520 panels, and decreased 700 panels. The 599 unique, characterized genes so altered were compared with a previously acquired database of 873 genes known to be altered by phenotypic transition either from keratocyte to fibroblast or from fibroblast to myofibroblast. The number of genes concordant between these sets was 170, 4.9-fold greater than random chance (p=1.65×10^−130, chi-squared test). Extracellular matrix components: 244 panels (143 unique genes) with the Gene Ontology Cellular Component code 5578 (extracellular matrix) were selected. Of these, 28 were TGFβ-1 modulated in the present experiment and 49 were Consistent 5-fold increases in myofibroblasts.\nIn Table 1 are ECM genes altered by phenotype change, which are also affected by ethyl pyruvate. Genes in bold were altered during phenotype shifts only in previous experiments, genes in italics were altered by phenotype shift only in the present experiment, and genes in normal font were altered by phenotype shifts in both present and prior experiments."}, "[3]": {"settings": "three consistent (2-fold) changes of four potential"}, "[4]": {"settings": "two consistent (2-fold) changes of four potential"}}, "data": [{"smiles": "CCOC(=O)C(C)=O", "note": "[ethyl pyruvate]", "values": [{"measurement": "cell number", "setting": "[1]; 1% FBS with or without TGF-β1 or b-FGF/HS, 10 mM and 15 mM EP, counted every 24 hours", "value": "no significant increases in cell number"}, {"measurement": "proliferation of human corneal fibroblasts and myofibroblasts", "setting": "[1]; 10-20 mM in the medium", "value": "inhibited proliferation"}, {"measurement": "latent transforming growth factor beta binding protein 1 expression change", "setting": "[2]; four consistent (2-fold) changes of four potential", "value": "(−4.1)"}, {"measurement": "consistent increase of RGC32, HMOX1, GDF15 and TRIB3 expression", "setting": "[2]; myofibroblasts, only four characterized genes", "value": 5, "unit": "fold"}, {"measurement": "Tissue factor pathway inhibitor 2 expression change", "setting": "[2]; [3]", "value": "(−4.8)"}, {"measurement": "collagen, type III, alpha 1 expression change", "setting": "[2]; [3]", "value": "alpha 1 (−4.9)"}, {"measurement": "collagen, type X, alpha1 expression change", "setting": "[2]; [3]", "value": "alpha1 (−8.1)"}, {"measurement": "laminin, beta 1 expression change", "setting": "[2]; [3]", "value": "(−3.8)"}, {"measurement": "matrix metallopeptidase 10 (stromelysin 2) expression change", "setting": "[2]; [3]", "value": "(stromelysin 2) (3.8)"}, {"measurement": "periostin, osteoblast specific factor expression change", "setting": "[2]; [3]", "value": "specific factor (−9.7)"}, {"measurement": "secreted phosphoprotein 1 (osteopontin) expression change", "setting": "[2]; [3]", "value": "(osteopontin) (2.7)"}, {"measurement": "Collagen, type VIII, alpha 1 expression change", "setting": "[2]; [4]", "value": "alpha 1 (−4.0)"}, {"measurement": "EGF-containing fibulin-like extracellular matrix protein1 expression change", "setting": "[2]; [4]", "value": "(−2.6)"}, {"measurement": "SPARC-like 1 expression change", "setting": "[2]; [4]", "value": "SPARC-like 1 (−3.3)"}, {"measurement": "chondroitin sulfate proteoglycan 2 (versican) expression change", "setting": "[2]; [4]", "value": "(versican) (−5.9)"}, {"measurement": "collagen triple helix repeat containing 1 expression change", "setting": "[2]; [4]", "value": "containing 1 (−4.3)"}, {"measurement": "collagen, type I, alpha 2 expression change", "setting": "[2]; [4]", "value": "alpha 2 (−2.7)"}, {"measurement": "collagen, type V, alpha 1 expression change", "setting": "[2]; [4]", "value": "alpha 1 (−6.2)"}, {"measurement": "collagen, type VIII, alpha 2 expression change", "setting": "[2]; [4]", "value": "alpha 2 (−3.8)"}, {"measurement": "collagen, type XII, alpha1 expression change", "setting": "[2]; [4]", "value": "alpha1 (−2.8)"}, {"measurement": "fibronectin 1 expression change", "setting": "[2]; [4]", "value": "fibronectin 1 (−2.3)"}, {"measurement": "heparan sulfate proteoglycan 2 (perlecan) expression change", "setting": "[2]; [4]", "value": "(perlecan) (−3.0)"}, {"measurement": "laminin, alpha 4 expression change", "setting": "[2]; [4]", "value": "(−2.4)"}, {"measurement": "lysyl oxidase expression change", "setting": "[2]; [4]", "value": "lysyl oxidase (−4.0)"}, {"measurement": "matrix metallopeptidase 1 (interstitial collagenase) expression change", "setting": "[2]; [4]", "value": "collagenase) (5.9)"}, {"measurement": "secreted protein, acidic, cysteine-rich (osteonectin) expression change", "setting": "[2]; [4]", "value": "(osteonectin) (−8.4)"}, {"measurement": "tenascin C (hexabrachion) expression change", "setting": "[2]; [4]", "value": "(hexabrachion) (−7.4)"}, {"measurement": "collagen, type I, alpha 1 expression change", "setting": "[2]; two consistent (2-fold) ethyl pyruvate changes of four potential (2 phenotypes, 2 experiments)", "value": "alpha 1 (−2.9)"}]}]}
